Results as given in patent US12544374B2, “AZA-quinoline compounds and uses thereof” (Novartis AG, priority 2019, dated 2026).
pIC50: −log10 of the molar value. Where two headings read alike, the source gives them in different places.

Key:
[1] = target: wild type PRC2 (wtPRC2) complex (Homo sapiens (Human), UniProt Q15910); test: EZH2 LC-MS assay (LC-Qualified); type: biochemical; settings: (a) LC-Qualified assay
Method: Representative compounds of the invention were serially and separately diluted 3-fold in DMSO to obtain twelve concentrations. […] Solutions (6 μL) of 80 nM wild type PRC2 (wtPRC2) complex and 60 μM SAM in reaction buffer (20 mM Tris, pH 8.0, 0.1% BSA, 0.01% Triton, 0.5 mM DTT) were added to the wells that were then incubated with the test compound for 20 min. A 6 μL solution of 3 μM of the substrate peptide H3K27me1 (histone H3[21-44]-K27me1-biotin) and 6 μM regulatory peptide H3K27me3 (histone H3[21-44]-K27me3) in reaction buffer was added to initiate each reaction. […] The data were fit to a dose response equation using the program Helios to get the IC50 values of the test compound.

[2] = target: EZH2 (Homo sapiens (Human), UniProt Q15910); test: ELISA (H3K27 methylation) assay in G401 cell; type: cell-based; settings: (b) ELISA Qualified assay, 48 h
Chain of EZH2 (Q15910 whole entry): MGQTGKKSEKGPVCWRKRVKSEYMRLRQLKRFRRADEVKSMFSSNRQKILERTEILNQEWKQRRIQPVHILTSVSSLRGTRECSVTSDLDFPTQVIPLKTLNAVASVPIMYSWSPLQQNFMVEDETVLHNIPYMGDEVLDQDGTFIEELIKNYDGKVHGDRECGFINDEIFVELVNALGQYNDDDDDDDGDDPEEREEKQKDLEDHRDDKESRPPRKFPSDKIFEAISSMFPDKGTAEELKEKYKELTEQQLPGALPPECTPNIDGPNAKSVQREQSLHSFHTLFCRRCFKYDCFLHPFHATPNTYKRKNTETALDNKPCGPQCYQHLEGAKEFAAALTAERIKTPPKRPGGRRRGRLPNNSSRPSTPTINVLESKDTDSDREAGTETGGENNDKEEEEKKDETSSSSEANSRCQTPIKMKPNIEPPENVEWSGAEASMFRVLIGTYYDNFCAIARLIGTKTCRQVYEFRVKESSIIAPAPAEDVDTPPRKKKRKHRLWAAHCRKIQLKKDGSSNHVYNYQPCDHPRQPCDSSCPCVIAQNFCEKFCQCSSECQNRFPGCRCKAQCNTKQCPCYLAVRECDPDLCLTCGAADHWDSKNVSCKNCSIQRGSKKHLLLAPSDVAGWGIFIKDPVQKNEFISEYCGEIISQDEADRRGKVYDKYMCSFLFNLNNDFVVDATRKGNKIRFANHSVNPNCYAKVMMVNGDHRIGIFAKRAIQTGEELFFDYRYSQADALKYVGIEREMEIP
Chain of EZH2 (Q15022 whole entry partner): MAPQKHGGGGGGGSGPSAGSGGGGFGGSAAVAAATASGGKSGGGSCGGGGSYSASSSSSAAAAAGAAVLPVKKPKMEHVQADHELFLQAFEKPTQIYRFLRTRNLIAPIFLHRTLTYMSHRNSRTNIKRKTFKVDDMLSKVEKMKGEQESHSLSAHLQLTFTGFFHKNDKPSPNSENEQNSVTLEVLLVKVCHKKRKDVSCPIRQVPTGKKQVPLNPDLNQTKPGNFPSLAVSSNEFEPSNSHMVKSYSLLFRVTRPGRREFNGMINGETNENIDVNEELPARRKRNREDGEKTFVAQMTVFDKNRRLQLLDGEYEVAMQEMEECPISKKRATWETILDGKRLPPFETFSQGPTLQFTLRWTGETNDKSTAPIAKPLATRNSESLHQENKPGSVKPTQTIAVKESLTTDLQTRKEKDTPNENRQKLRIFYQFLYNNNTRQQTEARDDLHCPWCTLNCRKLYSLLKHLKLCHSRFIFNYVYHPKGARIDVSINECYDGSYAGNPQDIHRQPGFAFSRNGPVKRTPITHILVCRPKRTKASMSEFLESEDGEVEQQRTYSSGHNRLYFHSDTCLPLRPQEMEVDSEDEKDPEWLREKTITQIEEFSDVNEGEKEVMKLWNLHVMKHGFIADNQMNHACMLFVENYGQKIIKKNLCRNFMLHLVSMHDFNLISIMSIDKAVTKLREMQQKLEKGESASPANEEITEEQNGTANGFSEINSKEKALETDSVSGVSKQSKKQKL
Chain of EZH2 (O75530 whole entry partner): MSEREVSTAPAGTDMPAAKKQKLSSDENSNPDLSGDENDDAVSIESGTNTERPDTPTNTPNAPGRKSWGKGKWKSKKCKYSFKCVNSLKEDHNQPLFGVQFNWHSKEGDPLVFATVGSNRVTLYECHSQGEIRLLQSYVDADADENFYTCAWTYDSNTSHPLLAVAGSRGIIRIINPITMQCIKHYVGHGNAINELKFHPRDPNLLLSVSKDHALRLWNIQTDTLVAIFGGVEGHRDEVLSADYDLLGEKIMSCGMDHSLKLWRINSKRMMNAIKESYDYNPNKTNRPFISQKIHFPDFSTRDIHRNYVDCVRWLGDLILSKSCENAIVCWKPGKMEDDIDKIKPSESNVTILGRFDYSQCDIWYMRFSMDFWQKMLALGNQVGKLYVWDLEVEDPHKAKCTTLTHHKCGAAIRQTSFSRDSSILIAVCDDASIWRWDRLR
Chain of EZH2 (Q09028 whole entry partner): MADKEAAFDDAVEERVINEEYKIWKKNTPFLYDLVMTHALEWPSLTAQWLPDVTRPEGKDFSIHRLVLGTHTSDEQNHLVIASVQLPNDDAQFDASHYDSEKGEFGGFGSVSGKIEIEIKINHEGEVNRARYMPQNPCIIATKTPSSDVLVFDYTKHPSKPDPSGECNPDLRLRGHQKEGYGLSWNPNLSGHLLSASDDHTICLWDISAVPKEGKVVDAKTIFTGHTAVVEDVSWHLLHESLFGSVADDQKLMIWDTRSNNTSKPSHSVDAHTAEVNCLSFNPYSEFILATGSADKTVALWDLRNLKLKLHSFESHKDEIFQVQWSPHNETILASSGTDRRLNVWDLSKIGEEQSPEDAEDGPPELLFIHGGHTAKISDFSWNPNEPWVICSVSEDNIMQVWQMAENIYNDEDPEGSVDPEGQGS
Method: Representative compounds of the invention were serially and separately diluted 3-fold in DO to obtain a total of eight or twelve concentrations. Then the compounds were added to G401 cell cultured in 384-well plate at 1:500 dilution to obtain the highest concentration of 20 μM. The cells were further cultured for 48 h before ELISA procedure.
ELISA protocol: Cell lysates were transferred to the wells of a 384-well plate and the final volume was adjusted to 50 μL per well with PBS. The plate was sealed, centrifuged at 2,000 rpm for 2 min and incubated at 4° C. for about 16 h. The plate was washed with TBST buffer (1×TBS (10×TBS: 24.2 g Tris (Sigma, T6066), 80 g NaCl (Sigma, S3014) to 1 L of water and adjust pH to 7.6 with HCl) with 0.1% Tween-20). Blocking buffer (TBST, 5% BSA; 50 μL per well) was added and the plate was incubated for 1 h at rt. The blocking buffer was removed and primary antibody was added (30 μL per well). […] The primary antibody was incubated in the plate at rt for 1 h. The wells were washed with TBST and incubated with secondary antibody for 1 h at rt.
After 1 h of incubation at rt, the wells were washed with TBST. […] The signal was read using a PerkinElmer Envision Reader. The H3K27 methylation readouts were normalized using H3 signal and then percentage inhibition was calculated against the samples treated with DO. The data were fit to a dose response curve using the program Helios to get the IC50 values of the test compound.

[3] = test system: B cell lymphoma cell KARPAS422; test: Analysis of cell proliferation, KARPAS422; type: cell-based, human; settings: KARPAS422 after 14 days of treatment, read-out: antiproliferative activities IC50
Method: B cell lymphoma cell KARPAS422 was cultured using standard cell culture conditions in RPMI-1640 (Invitrogen, cat #11875) supplemented with 15% FBS (Invitrogen, cat #10099-141) in humidified incubator at 37° C., 5% CO2. To assess the effect of PRC2 inhibition on cell proliferation, exponentially growing cells were seeded at a density of 1×10^5 cells/mL in 12-well plate (Corning, cat #CLS3513). After cell seeding, a compound of the invention was added to the cell media (in concentrations ranging from 0 to 100 μM, 3× dilution series). Viable cell numbers were determined every 3-4 days for up to 14 days using Vi-CELL (Beckman Coulter). On days of cell counting, fresh growth media and compound were replenished and cells split back to a density of 1×10^5 cells/mL. Total cell number is expressed as split-adjusted viable cells per mL. The dose response curves and IC50 values were generated using Prism.

[4] = Homo sapiens, KARPAS-422, 336 h

Chain of wild type PRC2 (wtPRC2) complex (Q15910 whole entry): as the sequence (Q15910 whole entry) above
Chain of wild type PRC2 (wtPRC2) complex (Q15022 whole entry partner): as the sequence (Q15022 whole entry partner) above
Chain of wild type PRC2 (wtPRC2) complex (O75530 whole entry partner): as the sequence (O75530 whole entry partner) above
Chain of wild type PRC2 (wtPRC2) complex (Q09028 whole entry partner): as the sequence (Q09028 whole entry partner) above
Chain of wild type PRC2 (wtPRC2) complex (Q6ZN18 whole entry partner): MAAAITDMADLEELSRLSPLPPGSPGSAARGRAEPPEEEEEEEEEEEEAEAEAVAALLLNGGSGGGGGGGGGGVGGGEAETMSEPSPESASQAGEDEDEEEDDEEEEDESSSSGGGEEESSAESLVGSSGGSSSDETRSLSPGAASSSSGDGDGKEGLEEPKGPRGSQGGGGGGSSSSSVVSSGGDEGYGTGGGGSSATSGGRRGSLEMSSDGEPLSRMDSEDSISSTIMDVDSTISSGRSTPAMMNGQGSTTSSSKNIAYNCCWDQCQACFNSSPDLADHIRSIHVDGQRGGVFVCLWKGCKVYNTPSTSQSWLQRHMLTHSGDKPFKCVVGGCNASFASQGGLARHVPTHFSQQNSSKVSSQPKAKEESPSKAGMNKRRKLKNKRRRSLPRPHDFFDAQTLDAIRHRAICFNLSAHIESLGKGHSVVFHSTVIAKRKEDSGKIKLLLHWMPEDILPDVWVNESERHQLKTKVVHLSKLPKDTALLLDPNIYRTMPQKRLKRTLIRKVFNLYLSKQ

IC50 [1] [µM] | IC50 [2] [µM] | pIC50 [3, 4] | pIC50 [3] | Compound
0.028 | 0.038 | 7.74 |  | OCC1COC(c2cnc(NC[C@H]3CC[C@H](Nc4ccc5ccnc(Cl)c5n4)CC3)nc2)OC1 (mixture of isomers) [Compound C34, (2-(2-((((1,4-trans)-4-((8-chloro-1,7-naphthyridin-2-yl)amino)cyclohexyl)methyl)amino)pyrimidin-5-yl)-1,3-dioxan-5-yl)methanol]
 |  |  | 9.52 | C[C@H](C(=O)NC1COC1)c1cnc(NC[C@H]2CC[C@H](Nc3ccc4ccnc(Cl)c4n3)CC2)nc1 (relative stereo) [Compound C53, (S)-2-(2-((((1,4-trans)-4-((8-chloro-1,7-naphthyridin-2-yl)amino)cyclohexyl)methyl)amino)pyrimidin-5-yl)-N-(oxetan-3-yl)propanamide]
0.121 | 0.042 | 7.70 |  | COc1nccc2ccc(N[C@H]3CC[C@H](CNc4ncc(N)cn4)CC3)nc12 [Compound C1, N^2-(((1,4-trans)-4-((8-methoxy-1,7-naphthyridin-2-yl)amino)cyclohexyl)methyl)pyrimidine-2,5-diamine]
0.101 | 0.066 | 7.16 |  | COc1nccc2ccc(N[C@H]3CC[C@H](CNc4ncc(NC(C)=O)cn4)CC3)nc12 [Compound C6, N-(2-((((1,4-trans)-4-((8-methoxy-1,7-naphthyridin-2-yl)amino)cyclohexyl)methyl)amino)pyrimidin-5-yl)acetamide]
0.07 | 0.077 | 7.14 |  | COc1nccc2ccc(N[C@H]3CC[C@H](CNc4ncc(C(=O)N5CCNCC5)cn4)CC3)nc12 [Compound C8, (2-((((1,4-trans)-4-((8-methoxy-1,7-naphthyridin-2-yl)amino)cyclohexyl)methyl)amino)pyrimidin-5-yl)(piperazin-1-yl)methanone]
0.017 | 0.028 | 7.51 |  | COC(=O)Nc1cnc(NC[C@H]2CC[C@H](Nc3ccc4ccnc(Cl)c4n3)CC2)nc1 [Compound C15, Methyl (2-((((1,4-trans)-4-((8-chloro-1,7-naphthyridin-2-yl)amino)cyclohexyl)methyl)amino)pyrimidin-5-yl)carbamate]
0.027 | 0.019 | 8.10 |  | Clc1nccc2ccc(N[C@H]3CC[C@H](CNc4ncc(CNC5COC5)cn4)CC3)nc12 [Compound C27, 8-chloro-N-((1,4-trans)-4-(((5-((oxetan-3-ylamino)methyl)pyrimidin-2-yl)amino)methyl)cyclohexyl)-1,7-naphthyridin-2-amine]
0.031 | 0.005 | 8.70 |  | CC1(NCc2cnc(NC[C@H]3CC[C@H](Nc4ccc5ccnc(Cl)c5n4)CC3)nc2)COC1 [Compound C28, 8-chloro-N-((1,4-trans)-4-(((5-(((3-methyloxetan-3-yl)amino)methyl)pyrimidin-2-yl)amino)methyl)cyclohexyl)-1,7-naphthyridin-2-amine]
0.009 | 0.011 | 8.52 |  | O=C(Cc1cnc(NC[C@H]2CC[C@H](Nc3ccc4ccnc(Cl)c4n3)CC2)nc1)NC1COC1 [Compound C36, 2-(2-((((1,4-trans)-4-((8-chloro-1,7-naphthyridin-2-yl)amino)cyclohexyl)methyl)amino)pyrimidin-5-yl)-N-(oxetan-3-yl)acetamide]
0.015 | 0.002 | 9.15 |  | CN(C(=O)Cc1cnc(NC[C@H]2CC[C@H](Nc3ccc4ccnc(Cl)c4n3)CC2)nc1)C1COC1 [Compound C37, 2-(2-((((1,4-trans)-4-((8-chloro-1,7-naphthyridin-2-yl)amino)cyclohexyl)methyl)amino)pyrimidin-5-yl)-N-methyl-N-(oxetan-3-yl)acetamide]
0.018 | 0.007 | 8.70 |  | O=C(Cc1ccc(NC[C@H]2CC[C@H](Nc3ccc4ccnc(Cl)c4n3)CC2)nc1)NC1COC1 [Compound C42, 2-(6-((((1,4-trans)-4-((8-chloro-1,7-naphthyridin-2-yl)amino)cyclohexyl)methyl)amino)pyridin-3-yl)-N-(oxetan-3-yl)acetamide]
0.008 | 0.002 | 9.30 |  | N#CCCN(C(=O)Cc1cnc(NC[C@H]2CC[C@H](Nc3ccc4ccnc(Cl)c4n3)CC2)nc1)C1COC1 [Compound C49, 2-(2-((((1,4-trans)-4-((8-chloro-1,7-naphthyridin-2-yl)amino)cyclohexyl)methyl)amino)pyrimidin-5-yl)-N-(2-cyanoethyl)-N-(oxetan-3-yl)acetamide]
0.038 | 0.018 | 8.10 |  | O=C(Cc1cnc(NC[C@H]2CC[C@H](Nc3ccc4ccnc(Cl)c4n3)CC2)nc1)N(CCO)C1COC1 [Compound C51, 2-(2-((((1,4-trans)-4-((8-chloro-1,7-naphthyridin-2-yl)amino)cyclohexyl)methyl)amino)pyrimidin-5-yl)-N-(2-hydroxyethyl)-N-(oxetan-3-yl)acetamide]
0.049 | 0.032 | 7.39 |  | CNc1nccc2ccc(N[C@H]3CC[C@H](CNc4ncc(C(N)=O)cn4)CC3)nc12 [Compound C61, 2-((((1,4-trans)-4-((8-(methylamino)-1,7-naphthyridin-2-yl)amino)cyclohexyl)methyl)amino)pyrimidine-5-carboxamide]
 |  | 8.70 |  | C[C@@H](C(=O)N1CC(O)C1)c1cnc(NC[C@H]2CC[C@H](Nc3ccc4ccnc(Cl)c4n3)CC2)nc1 [Compound C71, (R)-2-(2-((((1,4-trans)-4-((8-chloro-1,7-naphthyridin-2-yl)amino)cyclohexyl)methyl)amino)pyrimidin-5-yl)-1-(3-hydroxyazetidin-1-yl)propan-1-one]
0.049 | 0.056 |  |  | O=C(NC1COC1)C(CO)c1cnc(NC[C@H]2CC[C@H](Nc3ccc4ccnc(Cl)c4n3)CC2)nc1 (stereo partly drawn) [Compound C72, 2-(2-((((1,4-trans)-4-((8-chloro-1,7-naphthyridin-2-yl)amino)cyclohexyl)methyl)amino)pyrimidin-5-yl)-3-hydroxy-N-(oxetan-3-yl)propanamide]
 |  | 9.00 |  | O=C(NC1COC1)[C@H](O)c1cnc(NC[C@H]2CC[C@H](Nc3ccc4ccnc(Cl)c4n3)CC2)nc1 [Compound C76, (R)-2-(2-((((1,4-trans)-4-((8-chloro-1,7-naphthyridin-2-yl)amino)cyclohexyl)methyl)amino)pyrimidin-5-yl)-2-hydroxy-N-(oxetan-3-yl)acetamide]
0.012 | 0.025 | 8.70 |  | O=C(NC1COC1)C(F)(F)c1cnc(NC[C@H]2CC[C@H](Nc3ccc4ccnc(Cl)c4n3)CC2)nc1 [Compound C77, 2-(2-((((1,4-trans)-4-((8-chloro-1,7-naphthyridin-2-yl)amino)cyclohexyl)methyl)amino)pyrimidin-5-yl)-2,2-difluoro-N-(oxetan-3-yl)acetamide]
